Measurements reported in patent US20260078119A1, “DEGRADER COMPOUNDS AND USES THEREOF” (Bristol-Myers Squibb Company, priority 2024, published 2026).

How the values were obtained:
[1] = molecular target: T1, FAK (Homo sapiens, UniProt Q05397); experiment: FAK-HiBiT Degradation Assay; type: cell-based; details: for DC50: JHH-4-FAK-HiBiT clone d01 cells, two hours incubation, 10-point dose response, 3-fold dilution starting at 1 μM, Nano-Glo HiBiT luminescence, read-out: FAK HiBiT EC50; for FAK HiBiT Ymin: lower limit of the four parameter fit (value A), Ymax derived using DMSO control, JHH-4-FAK-HiBiT cells, two hours
T1 construct: homozygous knock-in of a HiBiT tag (Promega Corporation, Madison, WI) to the C-terminus of the FAK gene in its natural genomic locus; endogenous in cells; host or cells: JHH-4-FAK-HiBiT clone d01 (CRISPR-Cas9 knock-in at the endogenous locus)
T1 sequence (Q05397 whole entry): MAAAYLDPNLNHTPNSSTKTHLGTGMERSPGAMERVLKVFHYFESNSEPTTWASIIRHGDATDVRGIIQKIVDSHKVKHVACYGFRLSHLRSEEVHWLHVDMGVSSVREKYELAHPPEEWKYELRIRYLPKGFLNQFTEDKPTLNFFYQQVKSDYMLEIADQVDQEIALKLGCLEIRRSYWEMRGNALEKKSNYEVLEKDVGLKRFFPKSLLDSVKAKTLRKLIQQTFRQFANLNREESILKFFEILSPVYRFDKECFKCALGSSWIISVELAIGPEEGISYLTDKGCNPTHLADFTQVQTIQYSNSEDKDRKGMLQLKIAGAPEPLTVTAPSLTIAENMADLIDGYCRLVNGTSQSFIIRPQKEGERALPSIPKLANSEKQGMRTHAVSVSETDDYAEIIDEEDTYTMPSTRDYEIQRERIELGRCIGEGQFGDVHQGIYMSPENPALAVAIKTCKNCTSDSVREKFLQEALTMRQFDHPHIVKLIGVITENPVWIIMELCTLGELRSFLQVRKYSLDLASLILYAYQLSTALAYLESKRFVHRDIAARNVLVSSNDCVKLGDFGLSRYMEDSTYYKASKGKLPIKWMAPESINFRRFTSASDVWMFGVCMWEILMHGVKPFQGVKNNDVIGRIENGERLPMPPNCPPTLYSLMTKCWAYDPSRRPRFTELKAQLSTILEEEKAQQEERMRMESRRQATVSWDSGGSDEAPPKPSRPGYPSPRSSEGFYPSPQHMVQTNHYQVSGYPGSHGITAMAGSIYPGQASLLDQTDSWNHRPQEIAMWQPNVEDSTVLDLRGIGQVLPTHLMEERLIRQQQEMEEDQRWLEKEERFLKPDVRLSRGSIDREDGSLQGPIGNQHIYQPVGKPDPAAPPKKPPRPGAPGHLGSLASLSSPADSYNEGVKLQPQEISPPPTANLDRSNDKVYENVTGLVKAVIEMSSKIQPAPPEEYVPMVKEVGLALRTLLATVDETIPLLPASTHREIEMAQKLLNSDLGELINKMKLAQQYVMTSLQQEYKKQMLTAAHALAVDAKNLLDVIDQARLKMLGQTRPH
Outline: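 JHH-4 cells with homozygous CRISPR knock-in of C-terminal HiBiT on endogenous FAK, treated 2 h at 37 °C with compounds in 10-point 3-fold series from 1 μM. HiBiT lytic luminescence read; EC50 from four-parameter logistic fit, Ymax set by DMSO control, Ymin as lower fit limit.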

[2] = tested on: CAL-51 cells; experiment: CAL-51 Cell Proliferation Assay; type: cell-based; details: for EC50: Homo sapiens, 120 hours incubation, 10-point dose response, 4-fold dilutions starting at 10 μM, Cell-Titer-Glo, read-out: CAL-51 Prolif EC50; for CAL-51 Prolif Ymin: minimal percent of DMSO control observed in the concentrations tested (Ymin-obs), 120 hours
Outline: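 Cells seeded at 350/well in RPMI complete medium onto 10-point, 4-fold compound dilutions from 10 μM (0.1% DMSO), in duplicate, and grown 120 h at 37 °C. CellTiter-Glo luminescence, blank-subtracted and normalised to DMSO, was fitted with a four-parameter logistic to give EC50; Ymin-obs is the lowest observed percent of DMSO control.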

| DC50 [1] [nM] | FAK HiBiT Ymin [1] | Compound | EC50 [2] [nM] | CAL-51 Prolif Ymin [2] |
| --- | --- | --- | --- | --- |
| 3.72 | 10.37 | O=C1CCC(N2Cc3cc(Cn4ncc5c(-c6ncc(F)cc6Cl)cc(N6CC(F)C6)nc54)ccc3C2=O)C(=O)N1 (centres unmarked) [Example 56, 3-(5-{[4-(3-chloro-5-fluoropyridin-2-yl)-6-(3-fluoroazetidin-1-yl)-1H-pyrazolo[3,4-b]pyridin-1-yl]methyl}-1-oxo-2,3-dihydro-1H-isoindol-2-yl)piperidine-2,6-dione] | 1.67 | 26.66 |
| 25.3 | 13.33 | CN(c1cc(-c2ncc(C(F)(F)F)cc2Cl)c2cnn(Cc3ccc4c(c3)CN([C@H]3CCC(=O)NC3=O)C4=O)c2n1)C1COC1 [Example 99, (3S)-3-[5-({4-[3-chloro-5-(trifluoromethyl)pyridin-2-yl]-6-[methyl(oxetan-3-yl)amino]-1H-pyrazolo[3,4-b]pyridin-1-yl}methyl)-1-oxo-2,3-dihydro-1H-isoindol-2-yl]piperidine-2,6-dione] | 117 | 36.78 |
| 29.6 | 12.65 | C[C@]1(O)CCN(c2cc(-c3ncc(C(F)(F)F)cc3Cl)c3cnn(Cc4ccc5c(c4)CN([C@H]4CCC(=O)NC4=O)C5=O)c3n2)C1 [Example 102, (3S)-3-[5-({4-[3-chloro-5-(trifluoromethyl)pyridin-2-yl]-6-[(3S)-3-hydroxy-3-methylpyrrolidin-1-yl]-1H-pyrazolo[3,4-b]pyridin-1-yl}methyl)-1-oxo-2,3-dihydro-1H-isoindol-2-yl]piperidine-2,6-dione] | 10.9 | 35.36 |
| 8.56 | 10.79 | O=C1CCC(N2Cc3cc(Cn4ncc5c(-c6ncccc6C(F)(F)F)cc(N6CC(F)C6)nc54)ccc3C2=O)C(=O)N1 (centres unmarked) [Example 79, 3-(5-{[6-(3-fluoroazetidin-1-yl)-4-[3-(trifluoromethyl)pyridin-2-yl]-1H-pyrazolo[3,4-b]pyridin-1-yl]methyl}-1-oxo-2,3-dihydro-1H-isoindol-2-yl)piperidine-2,6-dione] | 3.22 | 23.53 |
| 0.55 | 9.43 | CC(C)Nc1nc2c(cnn2Cc2ccc3c(c2)CN([C@H]2CCC(=O)NC2=O)C3=O)c(-c2ncc(F)cc2Cl)c1F (single isomer, unassigned) [Example 9] | 0.46 | 22.89 |
| 35.7 | 27.68 | CC(C)(O)c1ccc(-c2cc(N3CCC3)nc3c2cnn3Cc2ccc3c(c2)CN(C2CCC(=O)NC2=O)C3=O)c(Cl)c1 (centres unmarked) [Example 105, 3-(5-{[6-(azetidin-1-yl)-4-[2-chloro-4-(2-hydroxypropan-2-yl)phenyl]-1H-pyrazolo[3,4-b]pyridin-1-yl]methyl}-1-oxo-2,3-dihydro-1H-isoindol-2-yl)piperidine-2,6-dione] | 4.91 | 55.87 |
| 0.42 | 7.37 | CCOc1cnc(-c2c(Cl)c(N3CC(F)C3)nc3c2cnn3Cc2ccc3c(c2)CN([C@H]2CCC(=O)NC2=O)C3=O)c(C(F)(F)F)c1 [Example 4, (3S)-3-[5-({5-chloro-4-[5-ethoxy-3-(trifluoromethyl)pyridin-2-yl]-6-(3-fluoroazetidin-1-yl)-1H-pyrazolo[3,4-b]pyridin-1-yl}methyl)-1-oxo-2,3-dihydro-1H-isoindol-2-yl]piperidine-2,6-dione] | 0.52 | 1.90 |
| 45.8 | 73.08 | CCOc1ccc(Cl)c(-c2cc(N3CC(F)C3)nc3c2cnn3Cc2ccc3c(c2)CN([C@H]2CCC(=O)NC2=O)C3=O)n1 [Example 111, (3S)-3-(5-{[4-(3-chloro-6-ethoxypyridin-2-yl)-6-(3-fluoroazetidin-1-yl)-1H-pyrazolo[3,4-b]pyridin-1-yl]methyl}-1-oxo-2,3-dihydro-1H-isoindol-2-yl)piperidine-2,6-dione] | 551 | 60.03 |
| 4.47 | 17.03 | O=C1CCC(N2Cc3cc(Cn4ncc5c(-c6ncc(F)cc6F)cc(N6CC(F)C6)nc54)ccc3C2=O)C(=O)N1 (centres unmarked) [Example 65, 3-(5-{[4-(3,5-difluoropyridin-2-yl)-6-(3-fluoroazetidin-1-yl)-1H-pyrazolo[3,4-b]pyridin-1-yl]methyl}-1-oxo-2,3-dihydro-1H-isoindol-2-yl)piperidine-2,6-dione] | 1.89 | 36.07 |
| 38.3 | 18.14 | CN(c1cc(-c2ncc(C(F)(F)F)cc2Cl)c2cnn(Cc3ccc4c(c3)CN([C@H]3CCC(=O)NC3=O)C4=O)c2n1)[C@H]1C[C@](C)(O)C1 [Example 107, (3S)-3-[5-({4-[3-chloro-5-(trifluoromethyl)pyridin-2-yl]-6-{methyl[(1s,3r)-3-hydroxy-3-methylcyclobutyl]amino}-1H-pyrazolo[3,4-b]pyridin-1-yl}methyl)-1-oxo-2,3-dihydro-1H-isoindol-2-yl]piperidine-2,6-dione] | 8.44 | 44.59 |
| 0.14 | 7.57 | O=C1CC[C@H](N2Cc3cc(Cn4ncc5c(-c6ncc(C(F)(F)F)cc6Cl)c(F)c(N6CC(F)C6)nc54)ccc3C2=O)C(=O)N1 [Example 1, (3S)-3-[5-({4-[3-chloro-5-(trifluoromethyl)pyridin-2-yl]-5-fluoro-6-(3-fluoroazetidin-1-yl)-1H-pyrazolo[3,4-b]pyridin-1-yl}methyl)-1-oxo-2,3-dihydro-1H-isoindol-2-yl]piperidine-2,6-dione] | 0.17 | 27.59 |
| 0.55 | 9.05 | O=C1CCC(N2Cc3cc(Cn4ncc5c(-c6ncc(Cl)cc6Cl)c(F)c(N6CC(F)C6)nc54)ccc3C2=O)C(=O)N1 (centres unmarked) [Example 8, 3-(5-{[4-(3,5-dichloropyridin-2-yl)-5-fluoro-6-(3-fluoroazetidin-1-yl)-1H-pyrazolo[3,4-b]pyridin-1-yl]methyl}-1-oxo-2,3-dihydro-1H-isoindol-2-yl)piperidine-2,6-dione] | 0.85 | 17.44 |
| 4.08 | 8.81 | Cc1cc(C(F)(F)F)ccc1-c1cc(N2CC[C@H](O)C2)nc2c1cnn2Cc1ccc2c(c1)CN([C@H]1CCC(=O)NC1=O)C2=O [Example 63, (3S)-3-[5-({6-[(3S)-3-hydroxypyrrolidin-1-yl]-4-[2-methyl-4-(trifluoromethyl)phenyl]-1H-pyrazolo[3,4-b]pyridin-1-yl}methyl)-1-oxo-2,3-dihydro-1H-isoindol-2-yl]piperidine-2,6-dione] | 1.92 | 31.58 |
| 1.09 | 8.19 | O=C1CCC(N2Cc3cc(Cn4ncc5c(-c6ncccc6Cl)c(Cl)c(N6CC(F)C6)nc54)ccc3C2=O)C(=O)N1 (centres unmarked) [Example 38, 3-(5-{[5-chloro-4-(3-chloropyridin-2-yl)-6-(3-fluoroazetidin-1-yl)-1H-pyrazolo[3,4-b]pyridin-1-yl]methyl}-1-oxo-2,3-dihydro-1H-isoindol-2-yl)piperidine-2,6-dione] | 0.48 | 21.89 |
| 51.8 | 21.00 | O=C1CC[C@H](N2Cc3cc(Cn4ncc5c(-c6ncc(C(F)(F)F)cc6Cl)cc(N6CC(O)C6)nc54)ccc3C2=O)C(=O)N1 [Example 113, (3S)-3-[5-({4-[3-chloro-5-(trifluoromethyl)pyridin-2-yl]-6-(3-hydroxyazetidin-1-yl)-1H-pyrazolo[3,4-b]pyridin-1-yl}methyl)-1-oxo-2,3-dihydro-1H-isoindol-2-yl]piperidine-2,6-dione] | 9.28 | 38.05 |
| 0.91 | 8.98 | O=C1CCC(N2Cc3cc(Cn4ncc5c(-c6ncc(C(F)(F)F)cc6Cl)cc(N6CC(F)C6)nc54)ccc3C2=O)C(=O)N1 (centres unmarked) [Example 34, 3-[5-({4-[3-chloro-5-(trifluoromethyl)pyridin-2-yl]-6-(3-fluoroazetidin-1-yl)-1H-pyrazolo[3,4-b]pyridin-1-yl}methyl)-1-oxo-2,3-dihydro-1H-isoindol-2-yl]piperidine-2,6-dione] | 1.08 | 26.10 |
| ≥ 1000 | 91.34 | O=C1CC[C@H](N2Cc3cc(Cn4ncc5c(-c6ncc(C(F)(F)F)cc6Cl)cc(NC6CCOCC6)nc54)ccc3C2=O)C(=O)N1 [Example 134, (3S)-3-[5-({4-[3-chloro-5-(trifluoromethyl)pyridin-2-yl]-6-[(oxan-4-yl)amino]-1H-pyrazolo[3,4-b]pyridin-1-yl}methyl)-1-oxo-2,3-dihydro-1H-isoindol-2-yl]piperidine-2,6-dione] | 8.5 | 65.79 |
